Reference: patent publication US10736965B2, “Risperidone biodegradable implant” (The Trustees of the University of Pennsylvania, priority 2004, dated 2020)
Converted amounts (≈) assume the structure as drawn. Read-outs that look alike come from different tables or passages of the source.

Tests used:
Drug solubility in water = format: physicochemical; conditions: measured after 14 days, distilled water, 21° C.; for solubility at 14 days: thermodynamic from solid
Excerpt: 1-mL aliquots were removed at fixed time intervals and analyzed by UV Spectroscopy to determine maximum saturation concentration.

[1] = In vitro drug release assay from 50:50 PLGA pellets, fit to equation (4); format: physicochemical; conditions: for Onset of drug release (induction time): 50:50 PLGA pellets, PBS 37° C.; for k, fit parameter: FIG. 11 legend; for k (degradation reaction rate): fit of FIG. 10 data to equation (4), 50:50 PLGA, 20% drug load
Procedure: 400 mg of 50:50 PLGA and 100 mg of drug were solvent cast to obtain a 20% by mass drug-load. Polymer and drug were dissolved in 45 milliliters (mL) acetone (Fisher Scientific, Inc.) and vortexed, then poured into an evaporation dish and placed in a vacuum oven at 40° C. under vacuum (3 inches Hg) with trace airflow. After seven days, dishes were removed from the oven. Evaporation residue was a thin film mixture of polymer and drug with homogenous appearance. The film was carefully weighed to confirm complete removal of solvent and pressed into four uniform disk-shaped pellets with 1 mm thickness and […], using a Teflon®-coated pellet press set at 25 (kilo-pounds) klb and 60° C. Pellets were carefully weighed and measured to determine densities. Negative control pellets with a 0% drug load were fabricated in the same manner, using 500 mg polymer and no drug.
Assays were performed in triplicate using three of each set of four uniform pellets. Each pellet was added to an amber-glass, capped jar (Wheaton, Inc.) containing 500 mL of a PBS solution and subjected to moderate shaking in the dark, at 37° C. 1-mL aliquots of were analyzed by UV Spectroscopy at fixed time intervals and. Positive control jars contained PBS and 10 mg of drug, the expected maximum release for a 20% drug-loaded pellet with a mass of 50 mg, and were also used to determine stability of each drug in saline solution over the course of the experiment.
The degradation reaction is likely to be a […] reaction between the polymer and water, and is thus proportional to the local concentration of both species. However, since the polymer comprises the majority of the pellet, its concentration is fixed everywhere. Thus, the degradation reaction is proportional to the local concentration of water (a function of the diffusivity) times a constant. Defining the diffusion coefficient of water into the polymer pellet as D, the diffusion/reaction equation for water is written as (1): […]
The model described by Equation (4) fit well the drug release data shown in FIG. 10 for all six drugs tested, with values of D and k as listed in Table 2 (the curves for haloperidol and aspirin are depicted in FIG. 11). This is notable because the drugs tested are diverse; e.g. haloperidol and aspirin are very different. The deviations seen at late time points arose from the finite size of the pellets.

in vivo = conditions: rabbit
Excerpt: The concentration of drug as a function of time is a complex function. The error function can be approximated as erf(x)˜1−e^−7x/4, yielding equation 10 for the drug concentration. a1 is a constant equal to the total drug content of the implant, variable a2 is a constant equal to the metabolic rate, variable a3 reflects diffusion of drug from the implant and variable a4 reflects polymer degradation and influences total release interval.

[2] = first 77 days
[3] = format: physicochemical
Procedure: To evaluate the long-term stability of risperidone in physiological solution, 10 mg Risperidone was dissolved in 100 μl of acetonitrile for subsequent dissolution in 1,000 ml of PBS (0.9% NaCl, 0.01 M NaOH, 0.01 M NaH2PO4, pH 7.0) to yield a final solution of 10,000 nanograms (ng)/ml. The solution was shaken at 40 revolutions per minute in a light-safe amber bottle at 37° C. Drug concentration of a 1-ml sample was measured three times per week by UV spectroscopy (Amersham Biosciences, Buckinghamshire, UK). […] Studies were replicated using UV spectrophotometry and HPLC (FIG. 5).

O=C(CCCN1CCC(O)(c2ccc(Cl)cc2)CC1)c1ccc(F)cc1 [Haloperidol, 4-[4-(4-chlorophenyl)-4-hydroxy-1-piperidyl]-1-(4-fluorophenyl)-butan-1-one]
solubility at 14 days (Drug solubility in water): 130 µg/mL (≈ 346 µM) | Onset of drug release (induction time) [1]: exhibited an induction time | k, fit parameter [1]: approximately 0.1 1/days | k (degradation reaction rate) [1]: 0.07 day⁻¹ | Coefficient τ (in vivo): ≈ 0.027 | half-life (in vivo): ~2.17 h

CN1CCN(CCC=C2c3ccccc3Sc3ccc(S(=O)(=O)N(C)C)cc32)CC1 [Thiothixene, N,N-dimethyl-9-[3-(4-methylpiperazin-1-yl)propylidene]thioxanthene-2-sulfonamid]
solubility at 14 days (Drug solubility in water): 140 µg/mL (≈ 316 µM) | Onset of drug release (induction time) [1]: released as soon as the experiment begins | k (degradation reaction rate) [1]: 0.06 day⁻¹

CC12CCC(=O)C=C1CCC1C2C(O)CC2(C)C(C(=O)CO)CCC12 (stereo not drawn) [Corticosterone, 11-hydroxy-17-(2-hydroxyacetyl)-10,13-dimethyl-1,2,6,7,8,9,10,11,12,13,14,15,16,17-tetradecahydrocyclopenta[a]phenanthren-3-one]
solubility at 14 days (Drug solubility in water): 500 µg/mL (≈ 1440 µM) | k (degradation reaction rate) [1]: 0.33 day⁻¹

Cc1nc2n(c(=O)c1CCN1CCC(c3noc4cc(F)ccc34)CC1)CCCC2 [Risperidone]
Daily change in drug mass ([2]; pH 4.4): 0.00% | Daily change in drug mass ([2]; pH 5.4): 0.10% | Daily change in drug mass ([2]; pH 6.4): 0.04% | Daily change in drug mass ([2]; pH 7.4): 0.06% | Stability in physiological solution [3]: stable | Change in concentration of drug per day ([3]; PBS pH 7.0, 37° C.): 0.004 % per day | Change in concentration of drug ([3]; over 343 days, PBS pH 7.0, 37° C., UV spectroscopy): 1.4%

NS(=O)(=O)c1cc2c(cc1Cl)NCNS2(=O)=O [HCTZ, 9-chloro-5,5-dioxo-5λ6-thia-2,4-diazabicyclo[4.4.0]deca-6,8,10-triene-8-sulfonamide]
k (degradation reaction rate) [1]: 0.26 day⁻¹

CC(=O)Oc1ccccc1C(=O)O [Aspirin, 2-acetyloxybenzoic acid]
Water solubility (Drug solubility in water): 4990 µg/mL | k (degradation reaction rate) [1]: 0.06 day⁻¹

CC(C)Cc1ccc(C(C)C(=O)O)cc1 (stereo not drawn) [Ibuprofen, 2-[4-(2-methylpropyl)phenyl]propanoic acid]
solubility at 14 days (Drug solubility in water): 470 µg/mL (≈ 2280 µM) | k, fit parameter [1]: approximately 0.164 1/days | k (degradation reaction rate) [1]: 0.16 day⁻¹
